Experimental data published in ChEMBL document CHEMBL4002626, “Identification of a selective inhibitor of transforming growth factor β-activated kinase 1 by biosensor-based screening of focused libraries” (Bioorg Med Chem Lett, 2017).
Calls of active or inactive are those of the source. The calls are words filed in the database; no cut-off is given here.

Assays:
[1] = target: T1, Mitogen-activated protein kinase kinase kinase 7 (Homo sapiens, UniProt O43318); test: Binding affinity to recombinant human biotinylated N-terminal GST-tagged autophosphorylated TAK1 (1 to 303 residues) fused with TAB1 (437 to 504 residues) expressed in baculovirus infected sf9 cells by SPR assay
T1 sequence (O43318 whole entry): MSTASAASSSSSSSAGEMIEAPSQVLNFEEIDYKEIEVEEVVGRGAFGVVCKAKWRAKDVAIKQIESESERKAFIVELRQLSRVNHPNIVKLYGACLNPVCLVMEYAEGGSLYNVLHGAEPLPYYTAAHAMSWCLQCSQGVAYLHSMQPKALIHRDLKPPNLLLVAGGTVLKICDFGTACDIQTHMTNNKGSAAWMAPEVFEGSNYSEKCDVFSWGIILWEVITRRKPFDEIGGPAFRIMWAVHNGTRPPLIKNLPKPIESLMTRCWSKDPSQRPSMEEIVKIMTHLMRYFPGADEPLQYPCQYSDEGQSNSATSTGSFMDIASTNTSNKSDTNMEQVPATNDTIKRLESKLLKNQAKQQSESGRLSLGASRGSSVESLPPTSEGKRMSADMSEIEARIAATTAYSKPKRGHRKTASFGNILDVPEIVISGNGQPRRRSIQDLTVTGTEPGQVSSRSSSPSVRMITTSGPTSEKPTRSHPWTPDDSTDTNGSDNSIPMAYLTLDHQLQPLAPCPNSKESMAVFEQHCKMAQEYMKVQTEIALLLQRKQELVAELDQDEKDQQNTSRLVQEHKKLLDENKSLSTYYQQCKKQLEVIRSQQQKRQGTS

[2] = target: T1, Mitogen-activated protein kinase kinase kinase 7; test: Binding affinity to recombinant human biotinylated N-terminal GST-tagged non-autophosphorylated TAK1 (1 to 303 residues) fused with TAB1 (437 to 504 residues) expressed in baculovirus infected sf9 cells by SPR assay
[3] = target: T2, Mitogen-activated protein kinase kinase kinase 7 (Homo sapiens) (UniProt O43318); test: Binding affinity to TAK1 (unknown origin) at 5 uM using spin-labeled probe by 1H NMR method
T2 sequence (whole entry): T1 sequence (O43318 whole entry)

[4] = target: T2, Mitogen-activated protein kinase kinase kinase 7 (Homo sapiens); test: Binding affinity to recombinant human biotinylated N-terminal GST-tagged TAK1 (1 to 303 residues) fused with TAB1 (437 to 504 residues) expressed in baculovirus infected sf9 cells at 250 uM in presence of adenosine by SPR assay
[5] = target: Ephrin type-A receptor 2 (Homo sapiens, UniProt P29317); test: Inhibition of recombinant human N-terminal GST-tagged EPHA2 cytoplasmic domain (572 to 976 residues) expressed in baculovirus expression system
[6] = target: Receptor-type tyrosine-protein kinase FLT3 (Homo sapiens, UniProt P36888); test: Inhibition of recombinant human N-terminal GST-tagged FLT3 cytoplasmic domain (564 to 993 residues) expressed in baculovirus expression system
[7] = Inhibition of PDGFR (unknown origin); parameters: species or system Homo sapiens
[8] = target: Protein-tyrosine kinase 6 (Homo sapiens, UniProt Q13882); test: Inhibition of recombinant full length human N-terminal GST-tagged BRK (2 to 451 residues) expressed in baculovirus expression system
[9] = target: Tyrosine-protein kinase Lck (Homo sapiens, UniProt P06239); test: Inhibition of recombinant full length human N-terminal GST-tagged LCK (1 to 509 residues) expressed in baculovirus expression system
[10] = target: Aurora kinase A (Homo sapiens, UniProt O14965); test: Inhibition of recombinant full length human N-terminal GST-tagged Aurora kinase-A (1 to 403 residues) expressed in baculovirus expression system
Aurora kinase A, sequence (O14965 whole entry, the tested form may be a part): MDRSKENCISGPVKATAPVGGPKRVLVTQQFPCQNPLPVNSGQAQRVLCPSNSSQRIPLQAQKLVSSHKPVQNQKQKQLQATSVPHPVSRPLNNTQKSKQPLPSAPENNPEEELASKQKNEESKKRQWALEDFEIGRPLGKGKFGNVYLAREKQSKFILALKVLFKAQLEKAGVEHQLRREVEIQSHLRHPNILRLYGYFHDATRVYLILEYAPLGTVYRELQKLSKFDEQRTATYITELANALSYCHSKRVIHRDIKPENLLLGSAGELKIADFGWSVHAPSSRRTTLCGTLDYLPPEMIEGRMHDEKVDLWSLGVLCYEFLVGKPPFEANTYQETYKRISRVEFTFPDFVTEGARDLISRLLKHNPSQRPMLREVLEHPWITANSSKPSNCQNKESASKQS

[11] = target: T3, Protein kinase C beta type (Homo sapiens, UniProt P05771); test: Inhibition of recombinant full length human N-terminal GST-tagged PKCbeta1 (1 to 671 residues) expressed in baculovirus expression system
T3 sequence (P05771 whole entry, the tested form may be a part): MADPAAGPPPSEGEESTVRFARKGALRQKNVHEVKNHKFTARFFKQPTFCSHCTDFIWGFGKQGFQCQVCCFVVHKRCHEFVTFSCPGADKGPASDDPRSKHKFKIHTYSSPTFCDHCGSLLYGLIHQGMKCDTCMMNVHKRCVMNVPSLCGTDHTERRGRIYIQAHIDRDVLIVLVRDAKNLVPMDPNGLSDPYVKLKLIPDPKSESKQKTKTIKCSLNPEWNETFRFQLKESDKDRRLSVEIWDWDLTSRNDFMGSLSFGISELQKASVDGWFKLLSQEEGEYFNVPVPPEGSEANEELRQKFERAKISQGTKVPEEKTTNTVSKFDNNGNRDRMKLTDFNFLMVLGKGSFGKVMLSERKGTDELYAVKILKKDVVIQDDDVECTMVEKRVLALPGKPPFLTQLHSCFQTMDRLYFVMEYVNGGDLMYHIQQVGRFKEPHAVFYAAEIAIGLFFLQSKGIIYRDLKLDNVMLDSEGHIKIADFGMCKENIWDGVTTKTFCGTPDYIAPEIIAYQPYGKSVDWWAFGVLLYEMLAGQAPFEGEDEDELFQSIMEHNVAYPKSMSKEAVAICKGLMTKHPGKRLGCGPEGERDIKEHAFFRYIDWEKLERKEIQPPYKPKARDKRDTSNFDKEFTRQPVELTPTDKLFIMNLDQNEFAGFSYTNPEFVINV

[12] = Solubility of the compound in fasted state simulated intestinal fluid at pH 6.5 after 24 hrs by HPLC-UV spectrophotometric assay; type: physicochemical
[13] = target: Insulin-like growth factor 1 receptor (Homo sapiens, UniProt P08069); test: Inhibition of recombinant human N-terminal GST-tagged IGF1R cytoplasmic domain (959 to 1367 residues) expressed in baculovirus expression system
[14] = target: T3, Protein kinase C beta type; test: Inhibition of recombinant full length human N-terminal GST-tagged PKCbeta2 (1 to 673 residues) expressed in baculovirus expression system
[15] = target: Mast/stem cell growth factor receptor Kit (Homo sapiens, UniProt P10721); test: Inhibition of recombinant human N-terminal GST-tagged KIT cytoplasmic domain (544 to 976 residues) expressed in baculovirus expression system
[16] = target: Protein kinase C alpha type (Homo sapiens, UniProt P17252); test: Inhibition of recombinant full length human N-terminal GST-tagged PKCalpha (1 to 351 residues) expressed in baculovirus expression system
[17] = target: Protein kinase C zeta type (Homo sapiens, UniProt Q05513); test: Inhibition of recombinant full length human N-terminal GST-tagged PKCzeta (1 to 592 residues) expressed in baculovirus expression system
Protein kinase C zeta type, sequence (Q05513 whole entry, the tested form may be a part): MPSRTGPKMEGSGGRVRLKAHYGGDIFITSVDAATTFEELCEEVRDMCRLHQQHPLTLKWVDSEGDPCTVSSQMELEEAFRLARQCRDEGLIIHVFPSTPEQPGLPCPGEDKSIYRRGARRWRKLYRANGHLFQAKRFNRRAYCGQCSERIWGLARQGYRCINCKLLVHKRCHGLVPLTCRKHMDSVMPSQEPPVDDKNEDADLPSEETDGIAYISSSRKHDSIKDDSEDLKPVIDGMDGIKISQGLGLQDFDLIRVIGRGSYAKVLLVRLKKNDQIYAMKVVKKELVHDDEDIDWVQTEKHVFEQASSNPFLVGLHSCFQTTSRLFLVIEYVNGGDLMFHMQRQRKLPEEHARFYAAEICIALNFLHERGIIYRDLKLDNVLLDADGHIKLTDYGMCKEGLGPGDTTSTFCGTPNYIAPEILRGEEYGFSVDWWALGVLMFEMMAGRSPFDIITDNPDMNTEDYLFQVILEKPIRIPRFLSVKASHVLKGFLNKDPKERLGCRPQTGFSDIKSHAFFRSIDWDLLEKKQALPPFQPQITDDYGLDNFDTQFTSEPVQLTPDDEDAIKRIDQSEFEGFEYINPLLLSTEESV

[18] = target: Tyrosine-protein kinase ABL1 (Homo sapiens, UniProt P00519); test: Inhibition of recombinant full length human N-terminal GST-tagged ABL (2 to 1130 residues) expressed in baculovirus expression system
[19] = target: Mitogen-activated protein kinase 14 (Homo sapiens, UniProt Q16539); test: Inhibition of recombinant human N-terminal GST-tagged p38-alpha (9 to 352 residues) expressed in Escherichia coli expression system
[20] = target: Cyclin-dependent kinase 1 (Homo sapiens, UniProt P06493); test: Inhibition of CDK1 (unknown origin)
[21] = target: Vascular endothelial growth factor receptor 2 (Homo sapiens, UniProt P35968); test: Inhibition of recombinant human N-terminal GST-tagged KDR cytoplasmic domain (790 to 1356 residues) expressed in baculovirus expression system
[22] = target: Tyrosine-protein kinase Yes (Homo sapiens, UniProt P07947); test: Inhibition of recombinant full length human N-terminal GST-tagged YES (1 to 543 residues) expressed in baculovirus expression system
Tyrosine-protein kinase Yes, sequence (P07947 whole entry, the tested form may be a part): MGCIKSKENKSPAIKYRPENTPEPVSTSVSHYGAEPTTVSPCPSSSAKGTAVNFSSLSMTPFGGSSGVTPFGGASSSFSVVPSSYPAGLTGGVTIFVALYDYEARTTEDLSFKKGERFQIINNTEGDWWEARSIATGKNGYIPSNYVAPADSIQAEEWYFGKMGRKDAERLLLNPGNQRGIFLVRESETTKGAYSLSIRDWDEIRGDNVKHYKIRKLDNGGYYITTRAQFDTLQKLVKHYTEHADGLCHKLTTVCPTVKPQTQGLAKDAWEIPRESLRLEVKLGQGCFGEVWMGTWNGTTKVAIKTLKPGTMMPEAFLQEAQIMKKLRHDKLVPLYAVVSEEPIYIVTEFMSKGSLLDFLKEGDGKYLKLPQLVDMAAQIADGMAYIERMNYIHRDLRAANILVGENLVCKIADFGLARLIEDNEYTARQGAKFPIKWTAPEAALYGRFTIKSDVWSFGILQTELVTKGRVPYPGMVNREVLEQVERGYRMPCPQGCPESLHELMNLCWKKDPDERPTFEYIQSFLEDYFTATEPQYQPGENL

[23] = target: Tyrosine-protein kinase receptor UFO (Homo sapiens, UniProt P30530); test: Inhibition of recombinant human N-terminal GST-tagged AXL cytoplasmic domain (464 to 885 residues) expressed in baculovirus expression system
[24] = target: Leukocyte tyrosine kinase receptor (Homo sapiens, UniProt P29376); test: Inhibition of recombinant human N-terminal GST-tagged LTK cytoplasmic domain (498 to 796 residues) expressed in baculovirus expression system
[25] = Solubility of the compound in 50 mM phosphate buffer at pH 6.5 after 24 hrs by HPLC-UV spectrophotometric assay; type: physicochemical
[26] = target: Tyrosine-protein kinase Lyn (Homo sapiens, UniProt P07948); test: Inhibition of LYN (unknown origin)
[27] = target: T2, Mitogen-activated protein kinase kinase kinase 7 (Homo sapiens); test: Binding affinity to recombinant human biotinylated N-terminal GST-tagged TAK1 (1 to 303 residues) fused with TAB1 (437 to 504 residues) expressed in baculovirus infected sf9 cells at 1 uM in presence of ATP by SPR assay
[28] = target: Tyrosine-protein kinase Fyn (Homo sapiens, UniProt P06241); test: Inhibition of FYN (unknown origin)
[29] = target: BMP-2-inducible protein kinase (Homo sapiens) (UniProt Q9NSY1); test: Inhibition of human BIKE (S34 to N329 residues) expressed in bacterial expression system at 1 uM by KINOMEscan assay
BMP-2-inducible protein kinase (Homo sapiens), sequence (Q9NSY1 whole entry, looked up, the tested form may be a part): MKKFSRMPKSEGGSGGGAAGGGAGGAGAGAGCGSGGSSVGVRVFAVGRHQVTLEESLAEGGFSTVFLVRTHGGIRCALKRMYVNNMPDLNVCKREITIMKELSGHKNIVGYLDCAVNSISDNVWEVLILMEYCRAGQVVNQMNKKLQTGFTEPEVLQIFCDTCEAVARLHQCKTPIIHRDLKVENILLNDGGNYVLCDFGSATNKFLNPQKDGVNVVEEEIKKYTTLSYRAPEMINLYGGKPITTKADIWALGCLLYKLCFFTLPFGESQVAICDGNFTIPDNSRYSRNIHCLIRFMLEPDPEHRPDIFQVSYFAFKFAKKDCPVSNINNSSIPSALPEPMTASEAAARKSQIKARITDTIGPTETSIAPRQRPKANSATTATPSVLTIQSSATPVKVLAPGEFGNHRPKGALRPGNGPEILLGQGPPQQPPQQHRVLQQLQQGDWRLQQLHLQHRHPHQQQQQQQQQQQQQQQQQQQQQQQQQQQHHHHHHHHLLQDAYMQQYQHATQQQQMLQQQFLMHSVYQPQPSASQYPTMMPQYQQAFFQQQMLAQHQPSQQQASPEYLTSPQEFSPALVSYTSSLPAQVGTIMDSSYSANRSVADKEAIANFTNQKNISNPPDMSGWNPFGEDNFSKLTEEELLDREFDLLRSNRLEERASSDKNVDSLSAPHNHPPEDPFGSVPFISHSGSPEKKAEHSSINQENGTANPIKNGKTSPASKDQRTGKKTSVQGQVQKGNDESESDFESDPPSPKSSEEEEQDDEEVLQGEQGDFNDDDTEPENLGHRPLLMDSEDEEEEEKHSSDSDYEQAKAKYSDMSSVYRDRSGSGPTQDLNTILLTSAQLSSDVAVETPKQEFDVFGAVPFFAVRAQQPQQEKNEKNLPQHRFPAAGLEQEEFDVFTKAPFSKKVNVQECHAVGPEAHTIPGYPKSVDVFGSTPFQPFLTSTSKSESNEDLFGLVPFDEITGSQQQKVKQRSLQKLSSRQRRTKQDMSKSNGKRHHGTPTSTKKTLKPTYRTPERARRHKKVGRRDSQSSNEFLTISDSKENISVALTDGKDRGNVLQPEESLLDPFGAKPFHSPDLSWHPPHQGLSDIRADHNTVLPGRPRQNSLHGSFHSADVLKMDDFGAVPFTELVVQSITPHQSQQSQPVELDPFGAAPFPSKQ

[30] = target: RAC-alpha serine/threonine-protein kinase (Homo sapiens, UniProt P31749); test: Inhibition of recombinant human N-terminal GST-tagged AKT1 catalytic domain (104 to 480 residues) expressed in baculovirus expression system
[31] = target: Fibroblast growth factor receptor 2 (Homo sapiens, UniProt P21802); test: Inhibition of recombinant human N-terminal GST-tagged FGFR2 cytoplasmic domain (399 to 821 residues) expressed in baculovirus expression system
Fibroblast growth factor receptor 2, sequence (P21802 whole entry, the tested form may be a part): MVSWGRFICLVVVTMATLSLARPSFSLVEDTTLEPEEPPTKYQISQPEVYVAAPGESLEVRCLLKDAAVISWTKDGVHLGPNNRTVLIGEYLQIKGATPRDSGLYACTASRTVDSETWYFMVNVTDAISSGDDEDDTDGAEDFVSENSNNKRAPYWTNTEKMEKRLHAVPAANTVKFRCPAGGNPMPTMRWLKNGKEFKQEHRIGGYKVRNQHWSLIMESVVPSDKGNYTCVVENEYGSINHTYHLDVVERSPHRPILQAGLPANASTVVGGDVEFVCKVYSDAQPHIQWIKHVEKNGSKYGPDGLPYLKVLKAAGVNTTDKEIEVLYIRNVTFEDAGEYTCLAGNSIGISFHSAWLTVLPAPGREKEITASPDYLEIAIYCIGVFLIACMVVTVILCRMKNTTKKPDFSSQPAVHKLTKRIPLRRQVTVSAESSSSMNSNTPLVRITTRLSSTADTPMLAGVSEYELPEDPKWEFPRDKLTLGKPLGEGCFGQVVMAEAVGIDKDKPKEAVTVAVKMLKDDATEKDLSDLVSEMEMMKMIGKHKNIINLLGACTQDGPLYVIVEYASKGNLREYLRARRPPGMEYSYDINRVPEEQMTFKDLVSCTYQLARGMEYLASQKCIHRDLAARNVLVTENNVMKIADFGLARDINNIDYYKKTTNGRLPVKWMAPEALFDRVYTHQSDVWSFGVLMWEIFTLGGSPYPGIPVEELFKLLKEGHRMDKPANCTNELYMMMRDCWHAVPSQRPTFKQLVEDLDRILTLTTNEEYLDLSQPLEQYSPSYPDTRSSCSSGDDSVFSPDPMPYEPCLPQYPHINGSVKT

[32] = target: RAF proto-oncogene serine/threonine-protein kinase (Homo sapiens, UniProt P04049); test: Inhibition of recombinant human N-terminal GST-tagged RAF1 catalytic domain (306 to 648 residues) expressed in baculovirus expression system
RAF proto-oncogene serine/threonine-protein kinase, sequence (P04049 whole entry, the tested form may be a part): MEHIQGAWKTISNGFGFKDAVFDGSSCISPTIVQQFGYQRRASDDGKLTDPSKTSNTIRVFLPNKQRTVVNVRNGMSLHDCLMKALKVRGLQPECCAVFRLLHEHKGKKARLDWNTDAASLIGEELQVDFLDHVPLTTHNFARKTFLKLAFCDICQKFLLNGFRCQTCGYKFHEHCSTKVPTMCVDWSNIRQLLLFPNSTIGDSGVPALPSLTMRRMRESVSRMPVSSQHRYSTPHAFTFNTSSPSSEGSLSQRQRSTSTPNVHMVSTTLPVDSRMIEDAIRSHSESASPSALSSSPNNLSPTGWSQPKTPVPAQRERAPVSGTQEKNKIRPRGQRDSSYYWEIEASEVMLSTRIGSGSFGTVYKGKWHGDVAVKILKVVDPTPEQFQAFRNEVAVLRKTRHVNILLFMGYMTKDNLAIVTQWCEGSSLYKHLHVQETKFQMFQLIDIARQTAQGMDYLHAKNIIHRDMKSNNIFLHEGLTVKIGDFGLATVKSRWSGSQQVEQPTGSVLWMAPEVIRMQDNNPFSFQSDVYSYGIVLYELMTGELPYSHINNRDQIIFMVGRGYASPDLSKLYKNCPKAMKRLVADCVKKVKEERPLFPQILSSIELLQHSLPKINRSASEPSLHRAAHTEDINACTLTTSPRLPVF

[33] = target: Focal adhesion kinase 1 (Homo sapiens, UniProt Q05397); test: Inhibition of recombinant human N-terminal GST-tagged FAK cytoplasmic domain (376 to 1052 residues) expressed in baculovirus expression system
[34] = target: Insulin receptor (Homo sapiens, UniProt P06213); test: Inhibition of recombinant human N-terminal GST-tagged INSR cytoplasmic domain (1005 to 1310 residues) expressed in baculovirus expression system
[35] = Inhibition of PKA (unknown origin); parameters: species or system Homo sapiens
[36] = target: Proto-oncogene tyrosine-protein kinase Src (Homo sapiens, UniProt P12931); test: Inhibition of recombinant full length human N-terminal GST-tagged SRC (1 to 536 residues) expressed in baculovirus expression system
[37] = target: Hepatocyte growth factor receptor (Homo sapiens, UniProt P08581); test: Inhibition of recombinant human N-terminal GST-tagged MET cytoplasmic domain (956 to 1390 residues) expressed in baculovirus expression system
[38] = target: Dual specificity mitogen-activated protein kinase kinase 1 (Homo sapiens, UniProt Q02750); test: Inhibition of MEK1 (unknown origin)
[39] = target: Cyclin-dependent kinase 2 (Homo sapiens, UniProt P24941); test: Inhibition of CDK2 (unknown origin)
[40] = target: Epithelial discoidin domain-containing receptor 1 (Homo sapiens, UniProt Q08345); test: Inhibition of recombinant human N-terminal GST-tagged DDR1 cytoplasmic domain (444 to 876 residues) expressed in baculovirus expression system
[41] = target: Macrophage-stimulating protein receptor (Homo sapiens, UniProt Q04912); test: Inhibition of recombinant human N-terminal GST-tagged RON cytoplasmic domain (979 to 1400 residues) expressed in baculovirus expression system
[42] = target: Epidermal growth factor receptor (Homo sapiens, UniProt P00533); test: Inhibition of recombinant human N-terminal GST-tagged EGFR cytoplasmic domain (669 to 1210 residues) expressed in baculovirus expression system

Nc1ncnc2c1ncn2[C@@H]1O[C@H](CO)[C@@H](O)[C@H]1O [ADENOSINE]
Kd [1]: 4.4 µM | Kd [2]: 34 µM

Nc1ncnc2c1ncn2[C@@H]1O[C@H](COP(=O)(O)OP(=O)(O)OP(=O)(O)O)[C@@H](O)[C@H]1O [ADENOSINE TRIPHOSPHATE]
Kd [1]: 2.8 µM

Oc1cnnc(SCc2ccc(Br)cc2)n1
Activity [3]: Active | Activity [4]: Active

Nc1ncnc2c1ncn2[C@@H]1O[C@H](COP(=O)(O)O)[C@@H](O)[C@H]1O [ADENOSINE PHOSPHATE]
Kd [1]: 120 µM | Kd [2]: 370 µM

CN1CCN(c2cccc3cc(NC(=O)Nc4ccc(Oc5ccnc6[nH]ccc56)cc4)ccc23)CC1
Kd [1]: 0.012 µM

COc1cc2ncccc2cc1NC(=O)c1csc2cncnc12
IC50 [5]: > 50 µM | IC50 [6]: 0.056 µM | IC50 [7]: > 50 µM | IC50 [8]: > 50 µM | IC50 [9]: > 50 µM | IC50 [10]: 42 µM | IC50 [11]: > 50 µM | solubility at 24 h [12]: < 3 µg/mL | IC50 [13]: > 50 µM | IC50 [14]: > 50 µM | IC50 [15]: > 50 µM | IC50 [16]: > 50 µM | Kd [1]: 0.059 µM | IC50 [17]: > 50 µM | IC50 [18]: > 50 µM | IC50 [19]: > 50 µM | IC50 [20]: > 50 µM | IC50 [21]: > 50 µM | IC50 [22]: > 50 µM | IC50 [23]: > 50 µM | IC50 [24]: > 50 µM | solubility at 24 h [25]: < 3 µg/mL | IC50 [26]: > 50 µM | Activity [27]: Active | IC50 [28]: > 50 µM | inhibition [29]: Active | IC50 [30]: > 50 µM | IC50 [31]: > 50 µM | IC50 [32]: > 50 µM | IC50 [33]: > 50 µM | IC50 [34]: > 50 µM | Kd [2]: 0.15 µM | IC50 [35]: > 50 µM | IC50 [36]: > 50 µM | IC50 [37]: > 50 µM | IC50 [38]: > 50 µM | IC50 [39]: > 50 µM | IC50 [40]: > 50 µM | IC50 [41]: > 50 µM | IC50 [42]: > 50 µM

Nc1ncnc2c1ncn2[C@@H]1O[C@H](COP(=O)(O)OP(=O)(O)O)[C@@H](O)[C@H]1O [ADENOSINE DIPHOSPHATE]
Kd [1]: 4.1 µM | Kd [2]: 63 µM
